In patent US12516044B2, “Heterocyclic compounds as immunomodulators” (Incyte Corporation, priority 2015, dated 2026):

Each molecule was assayed against T1, PD-1/PD-L1 protein/protein interaction (Homo sapiens, UniProt Q9NZQ7) (assay: PD-1/PD-L1 Homogeneous Time-Resolved Fluorescence (HTRF) Binding Assay). Details: recombinant human PD-L1 (19-238) His-tag and human PD-1 (25-167) Fc tag; 25° C., PBS pH 7.4.
T1 construct: Recombinant human PD-L1 protein (19-238) with a His-tag at the C-terminus; purchased AcroBiosystems PD1-H5229 (PD-L1-His); PD1-H5257 (PD-1-Fc)
T1 sequence (Q9NZQ7 19-238): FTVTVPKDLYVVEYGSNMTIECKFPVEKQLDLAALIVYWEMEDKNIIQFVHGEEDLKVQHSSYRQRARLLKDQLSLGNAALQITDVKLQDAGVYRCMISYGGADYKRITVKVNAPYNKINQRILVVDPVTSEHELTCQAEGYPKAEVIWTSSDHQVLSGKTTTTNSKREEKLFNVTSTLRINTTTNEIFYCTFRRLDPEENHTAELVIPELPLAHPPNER
Experimental: Example A. PD-1/PD-L1 Homogeneous Time-Resolved Fluorescence (HTRF) Binding Assay
The assays were conducted in a standard black 384-well polystyrene plate with a final volume of 20 μL. Inhibitors were first serially diluted in DMSO and then added to the plate wells before the addition of other reaction components. The final concentration of DMSO in the assay was 1%. The assays were carried out at 25° C. in the PBS buffer (pH 7.4) with 0.05% Tween-20 and 0.1% BSA. Recombinant human PD-L1 protein (19-238) with a His-tag at the C-terminus was purchased from AcroBiosystems (PD1-H5229). Recombinant human PD-1 protein (25-167) with Fc tag at the C-terminus was also purchased from AcroBiosystems (PD1-H5257). PD-L1 and PD-1 proteins were diluted in the assay buffer and 10 μL was added to the plate well. Plates were centrifuged and proteins were preincubated with inhibitors for 40 minutes. The incubation was followed by the addition of […] of HTRF detection buffer supplemented with Europium cryptate-labeled anti-human IgG (PerkinElmer-AD0212) specific for Fc and anti-His antibody conjugated to SureLight®-Allophycocyanin (APC, PerkinElmer-AD0059H). After centrifugation, the plate was incubated at 25° C. for 60 min. before reading on a PHERAstar FS plate reader (665 nm/620 nm ratio). Final concentrations in the assay were […] PD1, 10 nM PD-L1, 1 nM europium anti-human IgG and 20 nM anti-His-Allophycocyanin. IC50 determination was performed by fitting the curve of percent control activity versus the log of the inhibitor concentration using the GraphPad Prism 5.0 software.

| SMILES | IC50 |
| --- | --- |
| Cc1c(NC(=O)c2ccc(CNCCO)cn2)cccc1-c1ccccc1 [Example 2, 5-{[(2-hydroxyethyl)amino]methyl}-N-(2-methylbiphenyl-3-yl)pyridine-2-carboxamide] | 10 to 100 nM |
| Cc1cc(CN2CCCC[C@H]2C(=O)O)cnc1C(=O)Nc1cccc(-c2ccccc2)c1C [Example 3, (2S)-1-[(5-methyl-6-{[(2-methylbiphenyl-3-yl)amino]carbonyl}pyridin-3-yl)methyl]piperidine-2-carboxylic Acid] | 100 to 1000 nM |
| Cc1c(NC(=O)c2ncc(CN3CCCC[C@H]3C(=O)O)cn2)cccc1-c1ccccc1 [Example 5, (2S)-1-[(2-{[(2-methylbiphenyl-3-yl)amino]carbonyl}pyrimidin-5-yl)methyl]piperidine-2-carboxylic Acid] | 100 to 1000 nM |
| N#Cc1c(NC(=O)c2ccc(CN3CCCC[C@H]3C(=O)O)cn2)cccc1-c1ccc2c(c1)OCCO2 [Example 9, (2S)-1-{[6-({[2-cyano-3-(2,3-dihydro-1,4-benzodioxin-6-yl)phenyl]amino}carbonyl)pyridin-3-yl]methyl}piperidine-2-carboxylic Acid] | 10 to 100 nM |
| N#Cc1c(NC(=O)c2ccc(CNCCO)cn2)cccc1-c1ccc2c(c1)OCCO2 [Example 10, N-(2-cyano-3-(2,3-dihydrobenzo[b][1,4]dioxin-6-yl)phenyl)-5-((2-hydroxyethylamino)methyl)picolinamide] | ≤ 10 nM |
| Cc1nc(C(=O)Nc2cccc(-c3ccccc3)c2C)ccc1CNCCO [Example 14, 5-{[(2-hydroxyethyl)amino]methyl}-6-methyl-N-(2-methylbiphenyl-3-yl)pyridine-2-carboxamide] | 10 to 100 nM |
| Cc1c(NC(=O)c2ncc(CN3CCCC[C@H]3C(=O)O)cc2Cl)cccc1-c1ccccc1 [Example 15, (2S)-1-[(5-chloro-6-{[(2-methylbiphenyl-3-yl)amino]carbonyl}pyridin-3-yl)methyl]piperidine-2-carboxylic Acid] | 100 to 1000 nM |

Other lines, results leading:

| IC50 | SMILES |
| --- | --- |
| 10 to 100 nM | Cc1c(NC(=O)c2ccc(CN3CCCC[C@H]3C(=O)O)cn2)cccc1-c1ccccc1 [Example 1, (2S)-1-[(6-{[(2-methylbiphenyl-3-yl)amino]carbonyl}pyridin-3-yl)methyl]piperidine-2-carboxylic Acid] |
| 10 to 100 nM | Cc1cc(CNCCO)cnc1C(=O)Nc1cccc(-c2ccccc2)c1C [Example 4, 5-{[(2-hydroxyethyl)amino]methyl}-3-methyl-N-(2-methylbiphenyl-3-yl)pyridine-2-carboxamide] |
| 10 to 100 nM | Cc1c(NC(=O)c2ncc(CNCCO)cn2)cccc1-c1ccccc1 [Example 6, 5-{[(2-hydroxyethyl)amino]methyl}-N-(2-methylbiphenyl-3-yl)pyrimidine-2-carboxamide] |
| 10 to 100 nM | N#Cc1c(NC(=O)c2ccc(CN3CCCC[C@H]3C(=O)O)cn2)cccc1-c1ccccc1 [Example 7, (2S)-1-[(6-{[(2-cyanobiphenyl-3-yl)amino]carbonyl}pyridin-3-yl)methyl]piperidine-2-carboxylic Acid] |
| ≤ 10 nM | N#Cc1c(NC(=O)c2ccc(CNCCO)cn2)cccc1-c1ccccc1 [Example 8, N-(2-cyanobiphenyl-3-yl)-5-{[(2-hydroxyethyl)amino]methyl}pyridine-2-carboxamide] |
| 10 to 100 nM | Cc1c(NC(=O)c2cnc(CNCCO)cn2)cccc1-c1ccccc1 [Example 11, 5-{[(2-hydroxyethyl)amino]methyl}-N-(2-methylbiphenyl-3-yl)pyrazine-2-carboxamide] |
| 10 to 100 nM | Cc1c(NC(=O)c2ccc(CNCCO)nn2)cccc1-c1ccccc1 [Example 12, 6-{[(2-hydroxyethyl)amino]methyl}-N-(2-methylbiphenyl-3-yl)pyridazine-3-carboxamide] |
| 100 to 1000 nM | Cc1nc(C(=O)Nc2cccc(-c3ccccc3)c2C)ccc1CN1CCCC[C@H]1C(=O)O [Example 13, (2S)-1-[(2-methyl-6-{[(2-methylbiphenyl-3-yl)amino]carbonyl}pyridin-3-yl)methyl]piperidine-2-carboxylic Acid] |
